Here are results for 1 compound from US4885314A, “Novel HMG-CoA reductase inhibitors” (Merck & Co., Inc., priority 1988, dated 1989).

The test relates to HMG-CoA reductase. In words: in vitro HMG-CoA reductase inhibition (protocol of J. Med. Chem., 1985, 28, page 347). It is filed as biochemical. Particulars: percent of the activity exhibited by mevinolin in the same protocol. Here is the method: The intrinsic HMG-CoA reductase inhibition activity of the claimed compounds is measured in the in vitro protocol described is J. Med. Chem., 1985, 28, page 347.

Regarding `C=C1C=C2C=C[C@H](C)[C@H](CC[C@@H](O)C[C@@H](O)CC(=O)O)C2[C@@H](OC(=O)C(C)CC)C1` (stereo partly shown), the relative inhibitory activity amounted to 50%.
